Consider 14 molecules from patent US20250333419A1, “BICYCLIC COMPOUNDS AS INHIBITORS OF WRN” (Incyte Corporation, priority 2023, published 2025).

Structures are written as SMILES.

For assay [1], the target named is T1, WRN (Homo sapiens, UniProt Q14191).
T1 construct: A His-tagged construct of WRN (AA S2-S1235) was produced and used for the ATPase assay; His; made in house; host or cells: Sf9 insect cells (baculovirus)
The assay is described as follows: WRN Helicase activity assay (fluorescence DNA unwinding). The format is biochemical. As to conditions: IC50, 1-hr pre-incubation with enzyme; geometric means of at least 2 independent replicates. Here is the method: Compounds of the examples were tested for WRN helicase activity. DNA encoding the target protein, 6×HIS-TEV-WRN-517-945, was produced, cloned and transfected as detailed in Example D. To determine the inhibitory properties of the compounds, a 384 wells plate-based Helicase assay was set up to measure the extent of DNA unwinding (Helicase) activity of WRN. The WRN Helicase assay was designed to measure increase in fluorescence signal using a fluorescence based, donor-quencher paired forked dsDNA oligomer substrate (custom synthesis from Sigma-Aldrich) prepared by annealing equal amounts of oligo GPat-1 ([BHQ2][…]) and oligo GPat-2 ([…][TAM]). Continuous measurement of fluorescent signal was used to optimize the buffer conditions, concentration of enzyme (WRN), concentration of substrates (ATP & dsDNA), and the linearity of the Helicase reaction. All solutions were prepared in the following assay buffer: 50 mM Tris-HCl, pH-7.5, 2 mM MgCl2, 50 mM NaCl, 1 mM EGTA, 0.01% P-20, 0.05% BSA, and 2 mM DTT prepared with nuclease free water.
A serial dilution (1:3 scheme) of the compounds was prepared in neat DMSO and 100 nL of the compounds was dispensed in the Greiner black low volume (Greiner #784076) 384 wells assay plate. An 1-hr pre-incubation of the compounds with enzyme was included. A His-tagged construct of WRN (AA S2-S1235) was produced and used for the ATPase assay. Maximum inhibition control wells were set up with the addition of only assay buffer, and no inhibition control wells were set up with neat DMSO without test compounds. The reaction was initiated by addition of 5 μL substrate mix (200 μM ultrapure ATP, and 50 nM dsDNA prepared in assay buffer) and incubated at 25° C. for 35 min. A typical Helicase reaction consists of 25 nM forked dsDNA, 100 μM ATP, and 1 nM WRN prepared in assay buffer. The WRN Helicase reaction was quenched by the addition of 5 μL ‘STOP’ solution containing 100 mM EDTA (final EDTA concentration 33.33 mM) prepared in assay buffer. The plates were read on BMG PHERAstar FSX using 540/590 module to measure an increase of fluorescence. Data analysis was carried out using the Genedata software following % of control normalization. Fitting parameters include dose response IC50, Hill slope (n), maximum inhibition (S∞), and minimum inhibition (S0). The reported IC50 values for compounds in this invention are the geometric means of at least 2 independent replicates.

Assay [2] has as its target T1, WRN. As to the kind of experiment: WRN ATPase activity assay (ADP-Glo). Format: biochemical. As to conditions: IC50, 1-hr pre-incubation with enzyme; geometric means of at least 2 independent replicates. How it is done:
Compounds of the Examples were tested for WRN ATPase activity. WRN ATPase activity catalyzes ATP hydrolysis to produce ADP and phosphate. DNA encoding the target protein, 6×HIS-TEV-WRN-517-945, was produced, cloned and transfected as detailed in Example D. The amount of ADP produced was measured using ADP-Glo™ Kinase Assay kit from Promega Corporation in a Greiner white regular volume 384 wells assay plate (Greiner #781075). Data was normalized to a standard curve generated using various ADP concentrations and the corresponding luminescent signal intensities at each concentration. The assay conditions were optimized for enzyme concentration (WRN), substrate concentrations (ATP & dsDNA), and the linearity of the ATPase reaction, in the following assay buffer: 50 mM Tris-HCl, pH-7.5, 2 mM MgCl2, 50 mM NaCl, 1 mM EGTA, 0.01% P-20, 0.05% BSA, and 2 mM DTT prepared with nuclease free water.
A serial dilution (1:3 scheme) of the compounds were prepared in neat DMSO, with 100 nL of the compounds dispensed in the 384 wells assay plate. An 1-hr pre-incubation of the compounds with enzyme was included. A His-tagged construct of WRN (AA S2-S1235) was produced and used for the ATPase assay. Maximum inhibition control wells were set up with the addition of only assay buffer, and no inhibition control wells were set up with neat DMSO without test compounds. The reaction was initiated by addition of 5 μL substrate mix (200 μM ultrapure ATP, and 50 nM dsDNA prepared in assay buffer) and incubated at 25° C. for 35 min. A forked dsDNA oligomer substrate was prepared by annealing equal amounts of oligo GPat-1 ([BHQ2][…]) and oligo GPat-2 ([…][TAM]) and was used as dsDNA substrate for WRN ATPase assay. A typical ATPase reaction consists of 25 nM forked dsDNA, 100 μM ATP, and 1 nM WRN prepared in assay buffer. The WRN ATPase reaction was stopped by the addition of 5 μL of ADP-Glo Reagent from ADP-Glo™ Kinase Assay kit and incubated for 40 min to deplete the unreacted ATP. Afterwards, 5 μL of Kinase Detection Reagent from the ADP-Glo™ Kinase Assay kit was added and incubated for 1 hr for the development of luminescence signal.
Luminesce signals were measured on BMG PHERAstar FSX using luminescence protocol. Data analysis was carried out using Genedata software following % of control normalization. Fitting parameters include dose response IC50, Hill slope (n), maximum inhibition (S∞), and minimum inhibition (S0). The reported IC50 values for compounds in this invention are the geometric means of at least 2 independent replicates.

T1 sequence (Q14191 2-1235): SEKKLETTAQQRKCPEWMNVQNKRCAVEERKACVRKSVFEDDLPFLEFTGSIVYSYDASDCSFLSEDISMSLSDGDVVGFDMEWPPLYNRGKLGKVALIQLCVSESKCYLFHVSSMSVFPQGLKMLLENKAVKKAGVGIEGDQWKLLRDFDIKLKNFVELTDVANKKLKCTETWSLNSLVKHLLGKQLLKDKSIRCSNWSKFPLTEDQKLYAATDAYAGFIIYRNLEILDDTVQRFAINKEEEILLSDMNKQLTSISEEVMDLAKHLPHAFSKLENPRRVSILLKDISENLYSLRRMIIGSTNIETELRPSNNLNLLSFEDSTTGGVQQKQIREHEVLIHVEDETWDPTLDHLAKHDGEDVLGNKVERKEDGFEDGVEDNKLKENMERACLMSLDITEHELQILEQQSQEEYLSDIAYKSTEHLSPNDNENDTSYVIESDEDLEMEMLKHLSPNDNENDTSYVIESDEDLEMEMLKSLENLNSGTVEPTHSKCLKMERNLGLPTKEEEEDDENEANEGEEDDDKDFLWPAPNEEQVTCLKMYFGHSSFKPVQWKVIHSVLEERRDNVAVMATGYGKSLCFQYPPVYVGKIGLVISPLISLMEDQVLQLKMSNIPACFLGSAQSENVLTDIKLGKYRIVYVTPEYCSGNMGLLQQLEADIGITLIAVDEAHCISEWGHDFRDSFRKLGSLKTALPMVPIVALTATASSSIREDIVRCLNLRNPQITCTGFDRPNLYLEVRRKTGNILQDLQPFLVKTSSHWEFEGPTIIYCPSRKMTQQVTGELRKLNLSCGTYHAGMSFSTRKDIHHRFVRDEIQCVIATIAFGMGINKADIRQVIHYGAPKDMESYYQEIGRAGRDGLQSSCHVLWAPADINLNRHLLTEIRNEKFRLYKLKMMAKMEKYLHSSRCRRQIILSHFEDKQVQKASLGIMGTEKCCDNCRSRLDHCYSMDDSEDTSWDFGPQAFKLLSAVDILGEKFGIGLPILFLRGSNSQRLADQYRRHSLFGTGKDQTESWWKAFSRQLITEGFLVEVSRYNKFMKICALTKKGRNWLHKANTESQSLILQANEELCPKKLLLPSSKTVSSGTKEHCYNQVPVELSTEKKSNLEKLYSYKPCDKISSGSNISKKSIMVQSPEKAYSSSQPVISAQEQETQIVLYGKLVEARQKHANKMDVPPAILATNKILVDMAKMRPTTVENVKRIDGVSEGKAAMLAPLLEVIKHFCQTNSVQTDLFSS

What is called IC50 is the point on the concentration scale where inhibition reaches its midpoint. As for `C=CC(=O)Nc1ccccc1-c1c(CC)n(CC(=O)Nc2ccc(C(F)(F)F)cc2)c2nc(C3CCOCC3)nn2c1=O` [Example 23, N-(2-(5-Ethyl-7-oxo-4-(2-oxo-2-((4-(trifluoromethyl)phenyl)amino)ethyl)-2-(tetrahydro-2H-pyran-4-yl)-4,7-dihydro-[1,2,4]triazolo[1,5-a]pyrimidin-6-yl)phenyl)acrylamide], the IC50 against WRN [1] lay in the range of 500 to 1000 nM; against WRN [2], 100 to 500 nM.

Regarding `C=CC(=O)Nc1ccc(Cl)cc1-c1c(CC)n(CC(=O)Nc2ccc(C(F)(F)F)cc2)c2nc(C3=CCOCC3)nn2c1=O` [Example 11, N-(4-Chloro-2-(2-(3,6-dihydro-2H-pyran-4-yl)-5-ethyl-7-oxo-4-(2-oxo-2-((4-(trifluoromethyl)phenyl)amino)ethyl)-4,7-dihydro-[1,2,4]triazolo[1,5-a]pyrimidin-6-yl)phenyl)acrylamide], the IC50 at WRN [1] and on WRN [2] was 500 to 1000 nM each time.

Regarding `C=CC(=O)Nc1cc(C)ccc1-c1c(CC)n(CC(=O)Nc2ccc(C(F)(F)F)cc2)c2nc(C3=CCOCC3)nn2c1=O` [Example 8, N-(2-(2-(3,6-Dihydro-2H-pyran-4-yl)-5-ethyl-7-oxo-4-(2-oxo-2-((4-(trifluoromethyl)phenyl)amino)ethyl)-4,7-dihydro-[1,2,4]triazolo[1,5-a]pyrimidin-6-yl)-5-methylphenyl)acryl amide], the IC50 at WRN [1] and against WRN [2] was less than 100 nM throughout.

For the molecule `C=CC(=O)Nc1ccccc1-c1c(CC)n(CC(=O)Nc2ccc(C(F)(F)F)cc2Cl)c2nc(C(C)C)nn2c1=O` [Example 21, N-(2-(4-(2-((2-Chloro-4-(trifluoromethyl)phenyl)amino)-2-oxoethyl)-5-ethyl-2-isopropyl-7-oxo-4,7-dihydro-[1,2,4]triazolo[1,5-a]pyrimidin-6-yl)phenyl)acrylamide], the IC50 on WRN [1] and on WRN [2] was 100 to 500 nM throughout.

`C=CC(=O)Nc1ccccc1-c1c(CC)n(CC(=O)Nc2ccc(C(F)(F)F)cc2)c2nc(C3CC3)nn2c1=O` [Example 17, N-(2-(2-Cyclopropyl-5-ethyl-7-oxo-4-(2-oxo-2-((4-(trifluoromethyl)phenyl)amino)ethyl)-4,7-dihydro-[1,2,4]triazolo[1,5-a]pyrimidin-6-yl)phenyl)acrylamide]: the IC50 on WRN [1] and against WRN [2] was less than 100 nM each time.

Consider `C=CC(=O)N(C)c1ccccc1-c1c(CC)n(CC(=O)Nc2ccc(C(F)(F)F)cc2)c2nc(C3=CCOCC3)nn2c1=O` [Example 6, N-(2-(2-(3,6-Dihydro-2H-pyran-4-yl)-5-ethyl-7-oxo-4-(2-oxo-2-((4-(trifluoromethyl)phenyl)amino)ethyl)-4,7-dihydro-[1,2,4]triazolo[1,5-a]pyrimidin-6-yl)phenyl)-N-methylacrylamide], for which the IC50 against WRN [1] is 100 to 500 nM; against WRN [2], less than 100 nM.

In the case of `C=CC(=O)Nc1cc(Cl)ccc1-c1c(CC)n(CC(=O)Nc2ccc(C(F)(F)F)cc2)c2nc(C3=CCOCC3)nn2c1=O` [Example 10, N-(5-Chloro-2-(2-(3,6-dihydro-2H-pyran-4-yl)-5-ethyl-7-oxo-4-(2-oxo-2-((4-(trifluoromethyl)phenyl)amino)ethyl)-4,7-dihydro-[1,2,4]triazolo[1,5-a]pyrimidin-6-yl)phenyl)acrylamide], the IC50 on WRN [1] and on WRN [2] was less than 100 nM each time.

`C=CS(=O)(=O)Nc1ccccc1-c1c(CC)n(CC(=O)Nc2ccc(C(F)(F)F)cc2)c2nc(C3=CCOCC3)nn2c1=O` [Example 2, 2-(2-(3,6-Dihydro-2H-pyran-4-yl)-5-ethyl-7-oxo-6-(2-(vinylsulfonamido)phenyl)-[1,2,4]triazolo[1,5-a]pyrimidin-4(7H)-yl)-N-(4-(trifluoromethyl)phenyl)acetamide]: the IC50 on WRN [1] and against WRN [2] was less than 100 nM in each case.

As for `C=CC(=O)Nc1ccccc1-c1c(CC)n(CC(=O)Nc2ccc(C(F)(F)F)cc2)c2nc(C3CCN(C(=O)C=C)CC3)nn2c1=O` [Example 25, N-(2-(2-(1-Acryloylpiperidin-4-yl)-5-ethyl-7-oxo-4-(2-oxo-2-((4-(trifluoromethyl)phenyl)amino)ethyl)-4,7-dihydro-[1,2,4]triazolo[1,5-a]pyrimidin-6-yl)phenyl)acrylamide], the IC50 against WRN [1] and at WRN [2] was less than 100 nM in each case.

With `C=CC(=O)Nc1ccccc1-c1c(CC)n(CC(=O)Nc2ccc(C(F)(F)F)cc2Cl)c2nc(C3=CCOCC3)nn2c1=O` [Example 16, N-(2-(4-(2-((2-Chloro-4-(trifluoromethyl)phenyl)amino)-2-oxoethyl)-2-(3,6-dihydro-2H-pyran-4-yl)-5-ethyl-7-oxo-4,7-dihydro-[1,2,4]triazolo[1,5-a]pyrimidin-6-yl)phenyl)acrylamide], the IC50 on WRN [1] and against WRN [2] was less than 100 nM throughout.

Take `CCc1c(-c2ccccc2NC(=O)/C(C#N)=C/C(C)C)c(=O)n2nc(C3=CCOCC3)nc2n1CC(=O)Nc1ccc(C(F)(F)F)cc1` (single isomer, unassigned) [Example 5, (E)-2-Cyano-N-(2-(2-(3,6-dihydro-2H-pyran-4-yl)-5-ethyl-7-oxo-4-(2-oxo-2-((4-(trifluoromethyl)phenyl)amino)ethyl)-4,7-dihydro-[1,2,4]triazolo[1,5-a]pyrimidin-6-yl)phenyl)-4-methylpent-2-enamide]: the IC50 against WRN [1] and at WRN [2] was less than 100 nM each time.

Take `C=CC(=O)N1CCCC=C1c1c(CC)n(CC(=O)Nc2ccc(C(F)(F)F)cc2)c2nc(C3=CCOCC3)nn2c1=O` [Example 14, 2-(6-(1-Acryloyl-1,4,5,6-tetrahydropyridin-2-yl)-2-(3,6-dihydro-2H-pyran-4-yl)-5-ethyl-7-oxo-[1,2,4]triazolo[1,5-a]pyrimidin-4(7H)-yl)-N-(4-(trifluoromethyl)phenyl)acetamide]: the IC50 on WRN [1] and at WRN [2] was less than 100 nM each time.

`C=CC(=O)Nc1cc(F)ccc1-c1c(CC)n(CC(=O)Nc2ccc(C(F)(F)F)cc2)c2nc(C3=CCOCC3)nn2c1=O` [Example 13, N-(2-(2-(3,6-Dihydro-2H-pyran-4-yl)-5-ethyl-7-oxo-4-(2-oxo-2-((4-(trifluoromethyl)phenyl)amino)ethyl)-4,7-dihydro-[1,2,4]triazolo[1,5-a]pyrimidin-6-yl)-5-fluorophenyl)acryl amide]: the IC50 at WRN [1] and on WRN [2] was less than 100 nM each time.

With `C=CC(=O)Nc1ccccc1-c1c(CC)n(CC(=O)Nc2ccc(C(F)(F)F)cc2)c2nc(C3CCCCC3)nn2c1=O` [Example 20, N-(2-(2-Cyclohexyl-5-ethyl-7-oxo-4-(2-oxo-2-((4-(trifluoromethyl)phenyl)amino)ethyl)-4,7-dihydro-[1,2,4]triazolo[1,5-a]pyrimidin-6-yl)phenyl)acrylamide], the IC50 on WRN [1] and against WRN [2] was 100 to 500 nM in each case.
